What was measured:
LNCaP-JAK1 cells [1] = assay: Trypan blue exclusion assay of LNCaP-JAK1 cells; assay type: cell-based, human
Experimental: Graph depicts mean±SE (n=5) of the percentage of trypan blue permeable cells with and without IFNα. **p<0.005.
Graph depicts mean±SE (n=10).**p<0.005; ns, non-significant.
In the presence of Q-VD-OPh (throughout pre-treatment and infection). **p<0.01.
The indicated cells were treated and infected as in FIG. 9B, and the percentage of dead cells was determined by trypan blue exclusion assay. Graph depicts mean±SE of the percentage of dead cells with and without IFNγ (n=3). **p<0.005; ns (non-significant).
Trypan blue exclusion assay—2×10^5 LNCaP cells/well in a 12-well plate were infected, or not, under the indicated experimental conditions. For each well, detached and attached cells were collected together and mixed with 0.5% trypan blue at a 1:1 ratio. Cells were classified by trypan blue exclusion by light microscopy. Trypan blue (0.5%) was from Beit Haemek Biological Industries, Israel (cat. #03-102-1B).

LNCaP-JAK1 cells [2] = assay: SILAC proteome analysis of LNCaP-JAK1 cells; settings: for number of ISGs upregulated (of 50 ISGs): LNCaP-JAK1, cytokine treatment alone
Experimental: Stable Isotope Labeling by Amino Acids Analysis (S/LAC)—LNCaP and LNCaP-JAK1 cells were grown in RPMI devoid of lysine and arginine (Thermo, Cat. #A2494401), supplemented with 10% dialyzed FCS (Biological Industries, cat. #04-011-1A) and antibiotics for ten cell divisions (^˜3 weeks). “Heavy” culture medium was supplemented with ^13C6^15N2-lysine (146 mg/ml, cat. #CNLM-291-H) and ^13C6^15N4-arginine (84 mg/ml cat. #CNLM-539-H) both from Cambridge Isotope Laboratories. “Light” labeled culture medium was supplemented with unmodified lysine and arginine at the same concentrations. To avoid potential bias in the analysis, in any given condition, cultures were labeled with heavy (H) or light (L) amino acids; or with the reciprocal labeling. Each H-L pair was repeated twice. Thus, quantification of each condition was based on four independent replicates. Labeled cells, either treated or untreated, were trypsinized, counted, and washed twice in cold PBS. Samples were digested by trypsin and analyzed by Liquid chromatography tandem-mass spectrometry (LC-MS/MS) on Q Exactive hybrid quadrupole-Orbitrap mass spectrometer (Thermo Scientific). The data were analyzed and quantified with MaxQuant 1.5.2.8, using the human Uniprot database. Proteins were identified with false discovery rate (FDR)<0.01.

LNCaP-JAK1 cells [3] = assay: qRT-PCR of IFIT5 and IRF7 in LNCaP-JAK1 cells after IFNα; assay type: cell-based, human; settings: LNCaP-JAK1, IFNα 200 U/ml for 24 hours
Experimental: The average expression level of untreated cells was taken as 1. *p<0.05.
qRT-PCR—Total RNA was extracted from cells using EZ-RNA kit (Biological Industries, Israel, cat. #20-400-100) according to the manufacturer's instructions. First-strand cDNA synthesis was performed using the iScript cDNA Synthesis Kit (Bio Rad cat. #1708890) according to the manufacturer's instructions, with additional no-RNA control. Real-Time PCR analyses of mRNA levels of the genes of interest, relative to GAPDH mRNA levels were performed in triplicates, using Fast SYBR-green master mix (Applied Biosystems, cat. #4385612) with StepOnePlus Real-Time PCR System (Applied Biosystems, cat. #4376600). Primers were designed to span exon-exon junctions and to produce 80-140 bp amplicons. Gene expression values were calculated based on the comparative threshold cycle method.

LNCaP cells [4] = assay: Immunofluorescence of NS3-positive infected LNCaP cells with or without IFNα; assay type: cell-based, human; settings: IFNα 200 U/ml for 45 hours
Experimental: (§1) Quantification of percentage NS3 positive cells was from multiple (n=5) randomly selected fields, imaged under the same conditions as in FIG. 4D; *p<0.05.
(§2) Immunofluorescence—DU145 or LNCaP cells were seeded (5×10^4 cells/well) onto glass coverslips placed in a 24-well plate, and were infected, or not, with EHDV-TAU-LNCaP, in the presence or absence of IFNα. At 44 hours post infection (hpi) or 2 hours (for IFNα treatment), cells were washed twice with cold PBS (4° C.), fixed (4% paraformaldehyde for 20 minutes), blocked and permeabilized (PBS 1%/BSA 0.1%/Triton 0.1% (PBS/BSA/T) for 30 minutes), and stained with polyclonal anti-NS3 (1:300 dilution in PBS/BSA/T). Alexa-488 or 555-conjugated goat-anti-rabbit antibodies (1:200 dilution in PBS/BSA/T) were used as secondary antibodies. In order to detect nuclear phosphorylated STAT1, cells were fixed (4% paraformaldehyde for 20 minutes) and permeabilized with ice-cold methanol (10 minutes at −20° C.). Cells were stained with Rabbit-anti phospho-Tyr701-STAT1 (1:100 dilution in PBS/BSA/T) for overnight at 4° C. Mounting was with Fluorescence Mounting Medium (Golden Bridge, Mukilteo, Wash., USA, cat. #E1818).

LNCaP cells [5] = assay: IFNα-mediated STAT1 phosphorylation in LNCaP cells (immunoblot); assay type: cell-based, human
DU145 cells [6] = assay: Virus-induced death of DU145 cells with IFN; assay type: cell-based, human; settings: DU145, IFN alone
LNCaP cells [7] = assay type: cell-based, human
DU145 cells [8] = assay: Immunofluorescence of NS3-positive infected DU145 cells with or without IFNα; assay type: cell-based, human; settings: DU145, IFNα 200 U/ml for 45 hours
Experimental: as §1, §2

DU145 cells [9] = assay: IFNα-mediated STAT1 phosphorylation in DU145 cells (immunoblot); assay type: cell-based, human
LNCaP-JAK1 cells [10] = assay: IFNα-induced pSTAT1 in LNCaP-JAK1 cells (immunoblot); assay type: cell-based, human; settings: LNCaP-JAK1, 200 U/ml for 2 hours
LNCaP-JAK1 cells [11] = assay type: cell-based, human
LNCaP cells [12] = assay: Preliminary experiments, toxicity of TSA to LNCaP cells; assay type: cell-based, human; settings: longer incubation periods (84 to 96 hours)
LNCaP cells [13] = assay: SILAC proteome analysis of LNCaP cells; settings: IL-6 5 ng/ml for 16 hours
LNCaP-JAK1 cells [14] = assay: Cell cycle analysis (sub-G1, PI, FACS) of LNCaP-JAK1 cells; assay type: cell-based, human; settings: LNCaP-JAK1, IL-6 treatment
Experimental: RPMI (supplemented with 10% FCS, 10 ml) was added post-fixation, after which cells were pelleted, washed twice with cold PBS and re-suspended in PBS supplemented with RNase A (20 μg/ml, 30 minutes). Following additional pelleting, cells were re-suspended in Propidium Iodide (P1) solution (50 μg/ml in PBS) and analyzed by FACS (Becton Dickinson).

LNCaP-JAK1 cells [15] = assay: Immunoblot of STAT1 and STAT3 phosphorylation after IFNγ in LNCaP-JAK1 cells; assay type: cell-based, human; settings: LNCaP-JAK1, IFNγ 25 ng/ml for 20 minutes
Experimental: LNCaP and LNCaP-JAK1 cells were exposed to 25 ng/ml of IFNγ for 20 minutes.

## COC(=O)CC(NC(=O)C(NC(=O)c1ccc2ccccc2n1)C(C)C)C(=O)COc1c(F)cccc1F (stereo not shown) [Q-VD-OPh, Quinolyl-valyl-O-methylaspartyl-[-2,6-difluorophenoxy]-methyl ketone, reference compound]
LNCaP-JAK1 cells [1]; LNCaP-JAK1, Q-VD-OPh 20 μM, regardless of the presence of IL-6
  effect of caspase inhibition on death of infected cells: to basal levels

## IFNα
LNCaP-JAK1 cells [2]
  number of ISGs upregulated (of 50 ISGs): 17
LNCaP-JAK1 cells [2]; LNCaP-JAK1 compared to parental LNCaP cells
  enrichment of ISGs in IFNα-induced proteome changes: 24.4%
LNCaP-JAK1 cells [3]
  expression of IFIT5 and IRF7: marked induction
LNCaP cells [4]
  effect of IFNα on EHDV-TAU-LNCaP infection: negligible effects
LNCaP cells [5]; 200 U/ml for 4 hours
  pSTAT1 in response to IFNα: only residual pSTAT1 levels
LNCaP cells [5]; 30 minutes post stimulation with 200 U/ml IFNα
  increase in pSTAT1 levels: 4.2±2.5 fold
LNCaP-JAK1 cells [1]; LNCaP-JAK1, IFNα 200 U/ml
  effect on EHDV-TAU-LNCaP-induced cell death: protection from EHDV-TAU-LNCaP-induced cell death was observed
DU145 cells [6]
  protection from virus-induced death: significantly protect
LNCaP cells [7]
  activation of ISRE luciferase reporter: 1.2±0.1 fold
DU145 cells [8]
  effect of IFNα on NS3 signal of EHDV-TAU-LNCaP-infected cultures: abrogated the NS3 signal
DU145 cells [9]; DU145, 200 U/ml for 4 hours
  STAT1 phosphorylation in response to IFNα: robust STAT1 phosphorylation
DU145 cells [9]; DU145, 30 minutes post stimulation with 200 U/ml IFNα
  increase in pSTAT1 levels: 18±11 fold
LNCaP-JAK1 cells [10]
  pSTAT1 levels upon IFNα stimulation: dramatic increases in pSTAT1 levels
LNCaP-JAK1 cells [11]
  effect on production of infectious virions: inhibited production of infectious virions

## CC(/C=C/C(=O)NO)=C\[C@@H](C)C(=O)c1ccc(N(C)C)cc1 [TSA, trichostatin A]
LNCaP cells [12]
  toxicity to LNCaP cells: toxic

## IL-6: Human IL-6 (PeproTech), pleiotropic cytokine
LNCaP-JAK1 cells [2]
  number of ISGs upregulated (of 50 ISGs): 16
LNCaP cells [13]
  number of ISGs upregulated (of 50 ISGs): 3
LNCaP-JAK1 cells [14]
  percentage of cells exhibiting sub-G1 DNA content: slight increase

B1: IFNγ: human IFNγ (PeproTech) (protein, UniProt P01579 24-161, looked up)
Interferon gamma: QDPYVKEAENLKKYFNAGHSDVADNGTLFLGILKNWKEESDRKIMQSQIVSFYFKLFKNFKDDQSIQKSVETIKEDMNVKFFNSNKKKRDDFEKLTNYSVTDLNVQRKAIHELIQVMAELSPAAKTGKRKRSQMLFRG
LNCaP-JAK1 cells [2]; LNCaP-JAK1, IFNγ 25 ng/ml, 14 hours
  number of ISGs induced: 35
LNCaP-JAK1 cells [15]
  STAT activation: activated STAT1 (but not STAT3)
LNCaP-JAK1 cells [1]; LNCaP-JAK1, IFNγ 25 ng/ml
  effect on death of infected cells: supported oncolysis by non-productive viral infection

— patent US11484558B2, “Epizootic hemorrhagic disease virus—tel aviv university (EHDV-TAU)—oncolytic virus for treating cancer” (Ramot at Tel-Aviv University Ltd., priority 2017, dated 2022)
